The record followed here is patent US9918971B2, “Aerosol formulations of granisetron and uses thereof” (LUXENA PHARMACEUTICALS, INC., priority 2013, dated 2018).

Values after ≈ are worked out from the molar mass of the structure shown. Values joined by “and” are separate entries in the source; they are usually repeats but may differ in a detail not shown here. Equal entries are not always repeated. Where two headings read alike, the source gives them in different places.

Data set [1] in a line: Particle size distribution of spray dried granisetron fine powder by Malvern Mastersizer. Conditions: typical particle size distribution.
Data set [2] in a line: Solubility of granisetron in pMDI medium. It counts as physicochemical. The protocol: The solubility of granisetron was measured in a pMDI medium of HFA 134 as well as a mixture of HFA 134 and ethanol.
Data set [3] is described as follows: Particle size distribution of jet milled granisetron fine powder by Malvern Spraytec.

As for `CN1C2CCCC1CC(NC(=O)c1nn(C)c3ccccc13)C2` (stereo not shown) [Spray Dried Granisetron Fine Powder, granisetron], in data set [1], the “Cumulative % on <9 μm” value amounted to 98.0%, the D10 was found to be 1.01 μm, the D50 was found to be 2.33 μm and the D90 is 5.34 μm.
Usually solubility stands for the concentration that dissolves in the medium under given conditions. Regarding `CN1C2CCCC1CC(NC(=O)c1nn(C)c3ccccc13)C2` (stereo not shown) [granisetron], the “Solubility, single determinations” value in data set [2] (HFA 134a with Ethanol (9:1), 10 days) is 0.07429 mg/mL and 0.09799 mg/mL and 0.07393 mg/mL; in data set [2] (HFA 134a with Ethanol (9:1), ~24 Hours), 0.084173 mg/mL and 0.081496 mg/mL; in data set [2] (HFA 134a, 10 days), 0.01484 mg/mL and 0.01026 mg/mL and 0.01151 mg/mL and 0.01577 mg/mL. The Solubility was found to be 0.00018 % w/w in data set [2] (HFA 134a, 24 hours, converted with gravity 1.21 g/mL); 0.00108 % w/w in data set [2] (HFA 134a, 10 days, converted with gravity 1.21 g/mL); 0.00706 % w/w in data set [2] (HFA 134 and ethanol, 24 hours); 0.00681 % w/w in data set [2] (HFA 134 and ethanol, 10 days); 0.00217 mg/mL (≈ 6.95 µM) in data set [2] (pMDI medium (HFA 134a propellant), organic solvent or mixture, HFA 134a, ~24 Hours, read-out: Solubility, Average (RSD)); 0.0855 mg/mL (≈ 274 µM) in data set [2] (pMDI medium (HFA 134a with ethanol), organic solvent or mixture, HFA 134a with Ethanol (9:1), ~24 Hours, read-out: Solubility, Average (RSD)). The Solubility in data set [2] (pMDI medium (HFA 134a with ethanol), organic solvent or mixture, HFA 134a with Ethanol (9:1), ~24 Hours, read-out: Solubility, single determinations) came out at 0.0908 mg/mL (≈ 291 µM). For the same compound, the solubility at 10 days in data set [2] (pMDI medium (HFA 134a propellant), organic solvent or mixture, HFA 134a, 10 days, read-out: Solubility, Average (RSD)) is 0.0131 mg/mL (≈ 42 µM); in data set [2] (pMDI medium (HFA 134a propellant), organic solvent or mixture, HFA 134a, 10 days, read-out: Solubility, single determinations) it was 0.0132 mg/mL (≈ 42.1 µM); in data set [2] (pMDI medium (HFA 134a with ethanol), organic solvent or mixture, HFA 134a with Ethanol (9:1), 10 days, read-out: Solubility, Average (RSD)), 0.0824 mg/mL (≈ 264 µM); in data set [2] (pMDI medium (HFA 134a with ethanol), organic solvent or mixture, HFA 134a with Ethanol (9:1), 10 days, read-out: Solubility, single determinations) it was 0.0799 mg/mL (≈ 256 µM).
In the case of `CN1C2CCCC1CC(NC(=O)c1nn(C)c3ccccc13)C2.Cl` (stereo not shown) [jet milled granisetron, Granisetron HCl], the “mass less than 5 μm in diameter” value in data set [3] (after fifth milling cycle) is recorded as “approximately 75%”. The D10 in data set [3] (milling cycle 0) worked out at 3.77 μm; in data set [3] (milling cycle 1) it was 2.22 μm; in data set [3] (milling cycle 3) it was 1.44 μm; in data set [3] (milling cycle 5), 1.59 μm. For the same compound, the D50 in data set [3] (milling cycle 0) came out at 50.21 μm; in data set [3] (milling cycle 1) it was 7.01 μm; in data set [3] (milling cycle 3) it was 3.99 μm; in data set [3] (milling cycle 5) it was 3.79 μm. The D90 is reported as 445.02 μm in data set [3] (milling cycle 0), 20.59 μm in data set [3] (milling cycle 1), 9.90 μm in data set [3] (milling cycle 3) and 8.13 μm in data set [3] (milling cycle 5).
